Consider 1 molecule from patent publication US9399625B2, “Acridone compounds” (Oregon Health & Science University, priority 2006, dated 2016).

Experiment [1] has as its system CQ-sensitive P. falciparum D6. Nature of the experiment: Fixed-ratio combination (isobologram) with quinine, D6. The note with it: isobolar analysis. In kind it is cell-based. As to the method:
In one embodiment, synergism is assessed herein using fixed-ratio combinations that provide information over a wide range of drug concentrations. In this method, the two drugs are mixed in an appropriate ratio, serial dilutions of the combined solution are used for testing, and results compared to each drug alone. Specifically, to determine synergy, the acridone is tested in combination with a second drug using a modification of the fixed-ratio method described by Fivelman et al. (See, Fivelman et al., Antimicrob. Agents Chemother. 48, 4097-4102 (2004) and Winter et al., Antimicrob. Agents Chemother. 41, 1449-1454 (1997), both references incorporated herein, in their entirety, by reference). […] If these stock solutions were termed Drug A and Drug B, then six final stock solutions were prepared from this initial stock: Drug A alone, Drug B alone, and volume:volume mixtures of Drug A and B in the following ratios: 4:1, 3:2, 2:3, and 1:4. Two-fold dilutions of each of the six final stock solutions were done robotically across a 96-well plate in quadruplicate. […] The data pointed from all six curves were then analyzed using Calcusyn software (commercially available from BioSoft, Cambridge, UK) for determination of synergy. Output from this analysis included FIC values used to plot isobolograms as well as a rigorously determined synergy index, termed the combination index (CI) (Calcusyn). […]

Experiment [2] has as its system P. yoelii (K). The experiment can be described thus: Curative efficacy vs patent infection, three once-daily doses (adapted 6-day Thompson test). The note with it: ig, three once-daily doses.
Experiment [3] relates to P. falciparum Dd2 MDR. The experiment can be described thus: Morphology of synchronized Dd2 parasitized red cells. In kind it is cell-based. The conditions noted are these: 300 nM; 36 hours of incubation; vs controls. As to the method:
P. falciparum Dd2 MDR parasited red cells were synchronized to the ring stage by sorbitol lysis and incubated the cells in the presence or absence of 300 nM T3.5. […] P. yoelii infected mice treated with T3.5 harbor PRBCs that lack hemozoin. Taken together these observations are consistent with the notion that T3.5 blocks hemozoin formation in infected cells.

On to `CCN(CC)CCOc1ccc2c(=O)c3ccc(Cl)cc3n(CCN(CC)CC)c2c1` [T3.5, 3-(2-diethylaminoethoxy)-6-chloro-10-(2-diethylaminoethyl)-9-acridone], for which the interaction with quinine entry in experiment [1] is “synergism”. The “ED50 and ED90, gavage (ig) dosing, in words” value in experiment [2] is on record as “comparable”. For the same molecule, the visible hemozoin entry in experiment [3] is given as “markedly diminished”.
